Source: PubChem BioAssay AID330 (DTP/NCI, 2004)
Values joined by “and” are separate entries in the source; they are usually repeats but may differ in a detail not shown here. Equal entries are not always repeated. Inconclusive results and toxic doses are left out.

Tested on: P388 leukemia ip, CD2F1 mice, survival T/C
Assay: NCI In Vivo Anticancer Drug Screen. Data for tumor model P388 Leukemia (intraperitoneal) in CD2F1 (CDF1) mice
Settings: endpoint: median survival time, higher = longer survival
Outline: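 Mice carrying the transplanted tumor received test compound or vehicle. Survival was recorded in each group, and the value is the treated-group measurement divided by that of the vehicle-treated control group.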

[1] = dose: 100.0 mg/kg/injection, schedule: Q01DX001 (ip), vehicle: Klucel (hydroxypropylcellulose) (HPC)
[2] = dose: 200.0 mg/kg/injection, schedule: Q01DX001 (ip), vehicle: Klucel (hydroxypropylcellulose) (HPC)
[3] = dose: 100.0 mg/kg/injection, schedule: Q01DX005 (ip), vehicle: saline with Tween-80
[4] = dose: 200.0 mg/kg/injection, schedule: Q01DX005 (ip), vehicle: saline with Tween-80
[5] = dose: 400.0 mg/kg/injection, schedule: Q01DX005 (ip), vehicle: saline with Tween-80
[6] = dose: 50.0 mg/kg/injection, schedule: Q01DX005 (ip), vehicle: saline with Tween-80
[7] = dose: 50.0 mg/kg/injection, schedule: Q01DX009 (ip), vehicle: Klucel (hydroxypropylcellulose) (HPC)
[8] = dose: 100.0 mg/kg/injection, schedule: Q01DX009 (ip), vehicle: Klucel (hydroxypropylcellulose) (HPC)
[9] = dose: 200.0 mg/kg/injection, schedule: Q01DX009 (ip), vehicle: Klucel (hydroxypropylcellulose) (HPC)
[10] = dose: 60.0 mg/kg/injection, schedule: Q01DX005 (ip), vehicle: saline with Tween-80
[11] = dose: 120.0 mg/kg/injection, schedule: Q01DX005 (ip), vehicle: saline with Tween-80
[12] = dose: 240.0 mg/kg/injection, schedule: Q01DX005 (ip), vehicle: saline with Tween-80
[13] = dose: 50.0 mg/kg/injection, schedule: Q01DX005 (ip), vehicle: Klucel (hydroxypropylcellulose) (HPC)

In the case of `NC(N)=NC(N)=Nc1ccc(-c2ccc(N=C(N)N=C(N)N)cc2)cc1`, the T/C (dose: 3.13 mg/kg/injection, schedule: Q01DX009 (ip), vehicle: saline with Tween-80) is reported as 108 % of control and the T/C (dose: 6.25 mg/kg/injection, schedule: Q01DX009 (ip), vehicle: saline with Tween-80) is reported as 106 % of control.
With `CCCCCCCCCCCCCCCCSc1ccc(C)cc1` the T/C (dose: 25.0 mg/kg/injection, schedule: Q04DX003 (ip), vehicle: other) was 105 % of control, the T/C (dose: 50.0 mg/kg/injection, schedule: Q04DX003 (ip), vehicle: other) was 95 % of control and the T/C (dose: 100.0 mg/kg/injection, schedule: Q04DX003 (ip), vehicle: other) was 100 % of control.
With `O=c1c(N=Nc2ccc(Br)cc2)c(O)n(-c2ccccc2Cl)c(=S)n1-c1ccccc1` the T/C (dose: 50.0 mg/kg/injection, schedule: Q01DX001 (ip), vehicle: Klucel (hydroxypropylcellulose) (HPC)) was 94 % of control, the T/C [1] was 98 % of control and the T/C [2] was 94 % of control.
For `COC(C)C(O)(C(=O)OCC1=CC[N+]2([O-])CCC(O)C12)C(C)(C)O` (stereo unspecified), the T/C (dose: 100.0 mg/kg/injection, schedule: Q01DX005 (ip), vehicle: other) was 111 % of control, the T/C [3] was 104 % of control and the T/C (dose: 200.0 mg/kg/injection, schedule: Q01DX005 (ip), vehicle: other) was 102 % of control. For the same molecule, the T/C [4] was 112 % of control, the T/C [5] was 107 % of control and the T/C (dose: 800.0 mg/kg/injection, schedule: Q01DX005 (ip), vehicle: other) was 111 % of control. The T/C (dose: 800.0 mg/kg/injection, schedule: Q01DX005 (ip), vehicle: saline with Tween-80) was 117 % of control and the T/C (dose: 1600.0 mg/kg/injection, schedule: Q01DX005 (ip), vehicle: saline with Tween-80) was 112 % of control.
In the case of `C=C1C(=O)OC2C1CC(OC(C)=O)/C(C)=C/CCC1(C)OC21` (stereo unspecified), the T/C (dose: 4.0 mg/kg/injection, schedule: Q01DX009 (ip), vehicle: Klucel (hydroxypropylcellulose) (HPC)) is reported as 93 % of control, the T/C (dose: 8.0 mg/kg/injection, schedule: Q01DX009 (ip), vehicle: Klucel (hydroxypropylcellulose) (HPC)) is reported as 97 % of control and the T/C (dose: 16.0 mg/kg/injection, schedule: Q01DX009 (ip), vehicle: Klucel (hydroxypropylcellulose) (HPC)) is reported as 96 % of control. The T/C (dose: 32.0 mg/kg/injection, schedule: Q01DX009 (ip), vehicle: Klucel (hydroxypropylcellulose) (HPC)) was 93 % of control.
In the case of `COc1cc2c(c(OC)c1OC)-c1ccc(=O)c(OC)cc1[C@@H](NC(=O)C(F)(F)F)CC2`, the T/C (dose: 2.5 mg/kg/injection, schedule: Q01DX009 (ip), vehicle: Klucel (hydroxypropylcellulose) (HPC)) is reported as 105 % of control, the T/C (dose: 5.0 mg/kg/injection, schedule: Q01DX009 (ip), vehicle: Klucel (hydroxypropylcellulose) (HPC)) is reported as 97 % of control and the T/C (dose: 10.0 mg/kg/injection, schedule: Q01DX009 (ip), vehicle: Klucel (hydroxypropylcellulose) (HPC)) is reported as 96 % of control. The T/C (dose: 20.0 mg/kg/injection, schedule: Q01DX009 (ip), vehicle: Klucel (hydroxypropylcellulose) (HPC)) was 105 % of control and the T/C (dose: 40.0 mg/kg/injection, schedule: Q01DX009 (ip), vehicle: Klucel (hydroxypropylcellulose) (HPC)) was 102 % of control.
For `COc1ccc(C2[C@@H]3CCc4ccccc4C3=NN2C(C)=O)cc1` (stereo partly specified), the T/C [6] was 93 % of control, the T/C [3] was 91 % of control and the T/C [4] was 87 % of control.
`CCN(CC)CCSCCN(CC)CC` was tested, and the T/C (dose: 25.0 mg/kg/injection, schedule: Q01DX005 (ip), vehicle: saline with Tween-80) was 98 % of control, the T/C [6] was 110 % of control and the T/C [3] was 98 % of control.
For `O=[N+]([O-])c1cccc(NC(c2ccc(N(CCCl)CCCl)cc2)P(=O)(Oc2ccccc2)Oc2ccccc2)c1` (stereo unspecified), the T/C [7] was 95 % of control, the T/C [8] was 98 % of control and the T/C [9] was 95 % of control.
For `CC1(C)SC(C(NC(=O)COc2ccccc2)C(=O)O)NC1C(=O)O` (stereo unspecified), the T/C (dose: 50.0 mg/kg/injection, schedule: Q04DX003 (ip), vehicle: saline with Tween-80) was 90 % of control, the T/C (dose: 100.0 mg/kg/injection, schedule: Q04DX003 (ip), vehicle: saline with Tween-80) was 95 % of control and the T/C (dose: 200.0 mg/kg/injection, schedule: Q04DX003 (ip), vehicle: saline with Tween-80) was 95 % of control.
With `O=C(OCc1ccccc1)SS(=O)(=O)O` the T/C [7] was 95 % of control, the T/C [8] was 110 % of control and the T/C [9] was 119 % of control.
For `CCOC(=O)N(O)c1ccc(C)cc1C`, the T/C [6] was 96 % of control and the T/C [3] was 102 % of control.
`COc1ccc2c(c1O)-c1cc(O)cc3c1[C@@H](C2)N(C)CC3` was tested, and the T/C [6] was 104 % of control and the T/C [3] was 104 % of control.
In the case of `Cc1ccc2c(c1)C1(SC(C)C(=O)N1c1ccc(Br)cc1)C(=O)N2` (stereo unspecified), the T/C [10] is reported as 94 % of control, the T/C [11] is reported as 96 % of control and the T/C [12] is reported as 97 % of control.
In the case of `O=c1[nH]c2c(c(=O)n1CC(O)CO)CCCC2` (stereo unspecified), the T/C [10] is reported as 104 % of control, the T/C [11] is reported as 100 % of control and the T/C [12] is reported as 100 % of control.
With `NC(CSC(c1ccccc1)c1ccccc1)C(=O)NCC(=O)O` (stereo unspecified) the T/C [13] was 99 % of control, the T/C (dose: 100.0 mg/kg/injection, schedule: Q01DX005 (ip), vehicle: Klucel (hydroxypropylcellulose) (HPC)) was 99 % of control and the T/C (dose: 200.0 mg/kg/injection, schedule: Q01DX005 (ip), vehicle: Klucel (hydroxypropylcellulose) (HPC)) was 104 % of control.
In the case of `CCN=C(NCC)c1ccc(NC(=O)Nc2ccc(NC(=O)Nc3ccc(C(=NCC)NCC)cc3)cc2)cc1`, the T/C (dose: 3.12 mg/kg/injection, schedule: Q01DX005 (ip), vehicle: Klucel (hydroxypropylcellulose) (HPC)) is reported as 107 % of control, the T/C (dose: 6.25 mg/kg/injection, schedule: Q01DX005 (ip), vehicle: Klucel (hydroxypropylcellulose) (HPC)) is reported as 111 % of control and the T/C (dose: 12.5 mg/kg/injection, schedule: Q01DX005 (ip), vehicle: Klucel (hydroxypropylcellulose) (HPC)) is reported as 116 % of control. The T/C (dose: 25.0 mg/kg/injection, schedule: Q01DX005 (ip), vehicle: Klucel (hydroxypropylcellulose) (HPC)) was 156 % of control and the T/C [13] was 122 % of control.
For `COc1cc(-c2ccc(N=Nc3ccc(N)nc3N)c(OC)c2)ccc1N=Nc1ccc(N)nc1N`, the T/C [6] was 101 % of control, the T/C [3] was 104 % of control and the T/C [4] was 90 % of control.
`COC(=O)C1C(c2ccccc2)C1(C#N)C#N` (stereo unspecified) was tested, and the T/C (dose: 60.0 mg/kg/injection, schedule: Q01DX005 (ip), vehicle: Klucel (hydroxypropylcellulose) (HPC)) was 96 % of control, the T/C (dose: 120.0 mg/kg/injection, schedule: Q01DX005 (ip), vehicle: Klucel (hydroxypropylcellulose) (HPC)) was 106 % of control and the T/C (dose: 240.0 mg/kg/injection, schedule: Q01DX005 (ip), vehicle: Klucel (hydroxypropylcellulose) (HPC)) was 98 % of control.
For `C=C1C(=O)OCC1(C(=O)OCC)C(=O)OCC`, the T/C (dose: 4.0 mg/kg/injection, schedule: Q01DX009 (ip), vehicle: saline with Tween-80) was 117 % of control, the T/C (dose: 8.0 mg/kg/injection, schedule: Q01DX009 (ip), vehicle: saline with Tween-80) was 117 % of control and 124 % of control and the T/C (dose: 16.0 mg/kg/injection, schedule: Q01DX009 (ip), vehicle: saline with Tween-80) was 115 % of control. For the same molecule, the T/C (dose: 32.0 mg/kg/injection, schedule: Q01DX009 (ip), vehicle: saline with Tween-80) was 115 % of control.
In the case of `COC(=O)CN(CC(=O)OC)C1CC1N(CC(=O)OC)CC(=O)OC` (stereo unspecified), the T/C [7] is reported as 89 % of control, the T/C [1] is reported as 98 % of control and the T/C [8] is reported as 97 % of control. The T/C [2] was 102 % of control, the T/C [9] was 95 % of control and the T/C (dose: 400.0 mg/kg/injection, schedule: Q01DX001 (ip), vehicle: Klucel (hydroxypropylcellulose) (HPC)) was 89 % of control.
For `CSC(=S)S(=O)(=O)C12CC3CC(CC(C3)C1)C2`, the T/C (dose: 6.25 mg/kg/injection, schedule: Q01DX009 (ip), vehicle: Klucel (hydroxypropylcellulose) (HPC)) was 111 % of control and the T/C (dose: 25.0 mg/kg/injection, schedule: Q01DX009 (ip), vehicle: Klucel (hydroxypropylcellulose) (HPC)) was 113 % of control and 114 % of control.
With `CN(N=O)C(=O)NCCNC(=O)C1OC(n2cnc3c(=O)[nH]cnc32)C(O)C1O` (stereo unspecified) the T/C [3] was 106 % of control, the T/C [4] was 109 % of control and the T/C [5] was 115 % of control.
`COc1cc(NC(=O)CN(CCCl)CCCl)cc(OC)c1OC` was tested, and the T/C (dose: 25.0 mg/kg/injection, schedule: Q01DX009 (ip), vehicle: saline with Tween-80) was 157 % of control, the T/C (dose: 50.0 mg/kg/injection, schedule: Q01DX009 (ip), vehicle: saline with Tween-80) was 213 % of control and the T/C (dose: 100.0 mg/kg/injection, schedule: Q01DX009 (ip), vehicle: saline sonified) was 163 % of control. For the same molecule, the T/C (dose: 100.0 mg/kg/injection, schedule: Q01DX009 (ip), vehicle: saline with Tween-80) was 120 % of control, the T/C (dose: 132.0 mg/kg/injection, schedule: Q04DX003 (ip), vehicle: saline sonified) was 100 % of control and the T/C (dose: 200.0 mg/kg/injection, schedule: Q01DX009 (ip), vehicle: saline sonified) was 159 % of control. For the same molecule, the T/C (dose: 200.0 mg/kg/injection, schedule: Q04DX003 (ip), vehicle: saline sonified) was 110 % of control.
